These results are taken from ChEMBL document CHEMBL1133295, “Towards enzyme activated antiprostatic agents” (Bioorg Med Chem Lett, 2000).

The IC50 is the concentration that gives 50% inhibition.

Format in all cases: functional, cell-based
Common to all, as to conditions: Homo sapiens

Test [1] relates to HEK293. As to the kind of experiment: The compound was evaluated for cytotoxicity by assessing 3H thymidine uptake in HEK293 cell line.
Test [2] relates to MCF7. Kind of test: The compound was evaluated for cytotoxicity by assessing 3H thymidine uptake in MCF-7 cell line.
The subject of test [3] is LNCaP. As to the kind of experiment: The compound was evaluated for cytotoxicity by assessing 3H thymidine uptake in LNCaP cell line.
Test [4] has as its system HEK293. Kind of test: The compound was evaluated for cytotoxicity by assessing 3H thymidine uptake in HEK293 cell line in presence of PSA (1 ug).
Test [5] concerns LNCaP. As to the kind of experiment: The compound was evaluated for cytotoxicity by assessing 3H thymidine uptake in LNCaP cell line in presence of PSA (1 ug).

Regarding `CC(C)(C)OC(=O)N[C@@H](Cc1ccc(O)cc1)C(=O)Nc1ccc(COC(=O)N(CCO)CCO)cc1`, the values for the IC50 in test [1], in test [2] and in test [3] were over 600 µM, over 900 µM and over 500 µM, respectively.

With `N[C@@H](Cc1ccc(O)cc1)C(=O)Nc1ccc(COC(=O)N(CCCl)CCCl)cc1`, the IC50 in test [1] was 176 µM; in test [4], 173 µM; in test [2], over 900 µM; in test [3], 33 µM; in test [5], 34 µM.
